Laboratory results reported in EP4818168A1, “FUSED RING COMPOUND, PHARMACEUTICAL COMPOSITION THEREOF AND USE THEREOF” (priority 2023, dated 2025).
Read-outs that look alike come from different tables or passages of the source.

Key:
Format in all cases: cell-based
HCC1806 cells = assay: CTG assay of compound inhibition on cell viability (HCC1806 cells); conditions: Homo sapiens, read-out: IC50 in HCC1806 Cells
Experimental: CellTiter-Glo (CTG) is a rapid cell viability test method based on ATP detection. […] Adenosine triphosphate (ATP) participates in various enzymatic reactions in organisms and is an indicator of living cell metabolism. Its content directly reflects the number of living cells and cell status. During the experiment, equal volume of CTG reagent is added to the cultured cells to measure the luminescence value. The chemiluminescent signal value is proportional to the amount of ATP, thus reflecting the number of viable cells. Therefore, cell viability can be obtained by detecting the ATP content. Compounds that affect cell viability will inhibit cell viability in a concentration-dependent manner, allowing a curve to be fitted to obtain the IC50 value.
The experimental procedure is as follows: • 11. Place the cell suspension in a 15 mL centrifuge tube, centrifuge at 1000 rpm for 5 min at room temperature, discard the supernatant, and collect the cell pellet. • 12. Resuspend the cell pellet with preheated complete cell culture medium (RPMI1640+10%FBS+1%PS), and use a Countess® automated cell counter to detect cell viability and density. The cell viability must be above 90%. • 13. […] Transfer the compound solution to a 96-well plate seeded with cells (final concentration of DMSO 0.1%), and place in a cell incubator at 37°C, 5% CO2 for 6 days. • 15. […] Protect from light during the whole process. Perform optical signal readings using a SpectraMax i3x reader. • 16. Data analysis: Remaining activity (%) = 100% * (1 - ((LumDMSO - Lummedium) - Lumsample) / (LumDMSO - LumPBS/medium)). Use GraphPad Prism 9.0 software to draw an S-shaped dose-survival rate curve and calculate the IC50 value using a nonlinear regression model.

AURKA = biological target: T1, AURKA (Homo sapiens, UniProt O14965)
T1 construct: endogenous in cells; host or cells: Jurkat cells
T1 sequence (O14965 1-403): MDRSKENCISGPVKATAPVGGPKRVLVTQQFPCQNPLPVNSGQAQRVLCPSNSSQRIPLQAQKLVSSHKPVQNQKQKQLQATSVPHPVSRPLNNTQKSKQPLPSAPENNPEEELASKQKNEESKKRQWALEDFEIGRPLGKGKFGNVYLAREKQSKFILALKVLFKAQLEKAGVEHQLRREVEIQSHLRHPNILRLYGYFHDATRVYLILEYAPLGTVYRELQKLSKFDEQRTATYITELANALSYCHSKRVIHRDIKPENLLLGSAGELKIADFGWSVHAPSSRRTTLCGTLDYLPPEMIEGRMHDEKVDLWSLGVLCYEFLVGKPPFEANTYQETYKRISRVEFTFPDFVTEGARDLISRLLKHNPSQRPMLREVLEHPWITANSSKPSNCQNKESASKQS
In short: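 AURKA degradation read by western blot: band signal, fluorescent or chemiluminescent, curve-fitted to derive DC50. Cells were Jurkat, plated at 1×10^6 cells/500 µL with compound, then lysed and blotted onto nitrocellulose, primary antibody overnight at 4°C.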

H82 cells = assay: cells; conditions: Homo sapiens
In short: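 After 6 days' compound treatment at 37 °C (final DMSO 0.1%, RPMI1640/10% FBS), viable H82 cells were quantified by ATP-dependent CellTiter-Glo luminescence. Remaining activity was calculated against DMSO and medium wells, and a sigmoidal fit gave IC50.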

[1] = 144 h, HCC1806 cells, 6 days, CellTiter-Glo
[2] = 100 nM compound, Jurkat cells, 24 h, Table 1
[3] = 1 µM compound, Jurkat cells, 24 h, Table 1
[4] = NCI-H82, H82 cells, 4000 cells/well, CellTiter-Glo, read-out: IC50 in H82 Cells
[5] = 100 nM compound, Jurkat cells, 24 h, Table 2
[6] = 1 µM compound, Jurkat cells, 24 h, Table 2
[7] = NCI-H82, read-out: IC50 in H82 Cells

Compound | Percentage of AURKA Degradation Induced by 100 nM Compound in Jurkat Cells (AURKA; [2]) | Percentage of AURKA Degradation Induced by 1 µM Compound in Jurkat Cells (AURKA; [3]) | IC50 (H82 cells; [4]) | Percentage of AURKA Degradation Induced by 100 nM Compound in Jurkat Cells (AURKA; [5]) | Percentage of AURKA Degradation Induced by 1 µM Compound in Jurkat Cells (AURKA; [6]) | also measured
COc1cc(Nc2ncc3c(n2)-c2ccc(Cl)cc2C(c2c(F)cccc2OC)=NC3)ccc1C(=O)N[C@H]1C[C@H](C#Cc2cccc3c2CN(C2CCC(=O)NC2=O)C3=O)C1 (relative stereo) [Compound A7] |  |  |  |  |  | IC50 (HCC1806 cells; HCC1806, 144 h): 1 to 10 µM; Percentage of AURKA Degradation Induced by 100 nM Compound in Jurkat Cells (AURKA): ++ (key: +: Degradation ≤ 30%; ++: 30% < Degradation ≤ 70%; +++: Degradation > 70%); Percentage of AURKA Degradation Induced by 1 µM Compound in Jurkat Cells (AURKA): ++ (key: +: Degradation ≤ 30%; ++: 30% < Degradation ≤ 70%; +++: Degradation > 70%)
O=C1CCC(N2C(=O)c3cccc(NCCOCCNC(=O)c4ccc(Nc5ncc6c(n5)-c5ccc(Cl)cc5C(c5c(F)cccc5F)=NC6)cc4)c3C2=O)C(=O)N1 (centres unmarked) [Compound A1] | ++ (30% < Degradation ≤ 70%) | ++ (30% < Degradation ≤ 70%) |  |  |  | IC50 (HCC1806 cells; [1]): < 1 µM
COc1cc(Nc2ncc3c(n2)-c2ccc(Cl)cc2C(c2c(F)cccc2OC)=NC3)ccc1C(=O)N(C)CCCCCNc1cccc2c1C(=O)N(C1CCC(=O)NC1=O)C2=O (centres unmarked) [Compound A2] | ++ (30% < Degradation ≤ 70%) | ++ (30% < Degradation ≤ 70%) |  |  |  | IC50 (HCC1806 cells; [1]): < 1 µM
COc1cc(Nc2ncc3c(n2)-c2ccc(Cl)cc2C(c2c(F)cccc2OC)=NC3)ccc1C(=O)NC1CN(CCOc2cccc3c2C(=O)N(C2CCC(=O)NC2=O)C3=O)C1 (centres unmarked) [Compound A5] | ++ (30% < Degradation ≤ 70%) | ++ (30% < Degradation ≤ 70%) |  |  |  | IC50 (HCC1806 cells; [1]): < 1 µM
COc1cc(Nc2ncc3c(n2)-c2ccc(Cl)cc2C(c2c(F)cccc2OC)=NC3)ccc1C(=O)NCCN1CCN(c2ccc(N3CCC(=O)NC3=O)cc2)CC1 [Compound A8] | +++ (Degradation > 70%) | +++ (Degradation > 70%) |  |  |  | IC50 (HCC1806 cells; [1]): < 1 µM
O=C1CCN(c2ccc(N3CCN(CCNC(=O)c4ccc(Nc5ncc6c(n5)-c5ccc(Cl)cc5C(c5c(F)cccc5F)=NC6)cc4)CC3)cc2)C(=O)N1 [Compound A10] | ++ (30% < Degradation ≤ 70%) | ++ (30% < Degradation ≤ 70%) |  |  |  | IC50 (HCC1806 cells; HCC1806, 144 h): < 1 µM
CN(CCN1CCN(c2ccc(N3CCC(=O)NC3=O)cc2)CC1)C(=O)c1ccc(Nc2ncc3c(n2)-c2ccc(Cl)cc2C(c2c(F)cccc2F)=NC3)cc1 [Compound A11] | +++ (Degradation > 70%) | ++ (30% < Degradation ≤ 70%) |  |  |  | IC50 (HCC1806 cells; HCC1806, 144 h): < 1 µM
O=C1CCN(c2ccc(N3CCC(CNC(=O)c4ccc(Nc5ncc6c(n5)-c5ccc(Cl)cc5C(c5c(F)cccc5F)=NC6)cc4)CC3)cc2)C(=O)N1 [Compound A12] | + (Degradation ≤ 30%) | + (Degradation ≤ 30%) |  |  |  | IC50 (HCC1806 cells; HCC1806, 144 h): < 1 µM
COc1cc(Nc2ncc3c(n2)-c2ccc(Cl)cc2C(c2c(F)cccc2OC)=NC3)ccc1C(=O)NC1CC(C#Cc2cccc(N3CCC(=O)NC3=O)c2)C1 (centres unmarked) [Compound A50] |  |  |  |  |  | IC50 (HCC1806 cells; HCC1806, 144 h): < 1 µM
O=C1CCN(c2cccc(C#CC34CC(NC(=O)c5ccc(Nc6ncc7c(n6)-c6ccc(Cl)cc6C(c6c(F)cccc6F)=NC7)cc5)(C3)C4)c2)C(=O)N1 [Compound A76] |  |  |  |  |  | IC50 (HCC1806 cells; HCC1806, 144 h): 1 to 10 µM
O=C1CCN(c2ccc(N3CCC4(CC3)CN(CC3CN(c5ccc(Nc6ncc7c(n6)-c6ccc(Cl)cc6C(c6c(F)cccc6F)=NC7)cc5)C3)CCO4)nc2)C(=O)N1 [Compound A353] |  |  | < 1 µM | +++ (Degradation > 70%) | +++ (Degradation > 70%) | 
O=C1CCN(c2ccc(N3CCC4(CC3)CCN(C3CCN(c5ccc(Nc6ncc7c(n6)-c6ccc(Cl)cc6C(c6c(F)cccc6F)=NC7)cc5)CC3)CCO4)nc2)C(=O)N1 [Compound A355] |  |  |  | +++ (Degradation > 70%) | +++ (Degradation > 70%) | IC50 (H82 cells; [7]): < 1 µM
O=C1CCN(c2ccc(N3CC4COCC(C3)N4C3CCN(c4ccc(Nc5ncc6c(n5)-c5ccc(Cl)cc5C(c5c(F)cccc5F)=NC6)cc4)CC3)nc2)C(=O)N1 [Compound A356] |  |  | < 1 µM | +++ (Degradation > 70%) | +++ (Degradation > 70%) | 
O=C1CCN(c2ccc(N3CCC(N4C5COCC4CN(c4ccc(Nc6ncc7c(n6)-c6ccc(Cl)cc6C(c6c(F)cccc6F)=NC7)cc4)C5)CC3)nc2)C(=O)N1 [Compound A357] |  |  | < 1 µM | ++ (30% < Degradation ≤ 70%) | + (Degradation ≤ 30%) | 
O=C1CCN(c2ccc(N3CC4COCC(C3)N4CC3CN(c4ccc(Nc5ncc6c(n5)-c5ccc(Cl)cc5C(c5c(F)cccc5F)=NC6)cc4)C3)nc2)C(=O)N1 [Compound A358] |  |  | < 1 µM | +++ (Degradation > 70%) | +++ (Degradation > 70%) | 
O=C1CCN(c2ccc(N3CC4COCC(C3)N4CC3CCN(c4ccc(Nc5ncc6c(n5)-c5ccc(Cl)cc5C(c5c(F)cccc5F)=NC6)cc4)CC3)nc2)C(=O)N1 [Compound A359] |  |  | < 1 µM | +++ (Degradation > 70%) | +++ (Degradation > 70%) | 
O=C1CCN(c2ccc(N3CC4COCC(C3)N4C3CC4(CCN(c5ccc(Nc6ncc7c(n6)-c6ccc(Cl)cc6C(c6c(F)cccc6F)=NC7)cc5)CC4)C3)nc2)C(=O)N1 [Compound A360] |  |  | < 1 µM | +++ (Degradation > 70%) | +++ (Degradation > 70%) | 
O=C1CCN(c2ccc(N3CCC4(CC3)CC(N3CCN(C56CC(Nc7ncc8c(n7)-c7ccc(Cl)cc7C(c7c(F)cccc7F)=NC8)(C5)C6)CC3)CO4)nc2)C(=O)N1 (centres unmarked) [Compound A361] |  |  | < 1 µM | +++ (Degradation > 70%) | +++ (Degradation > 70%) | 
Cn1nc(N2CCC(=O)NC2=O)c2ccc(N3CC4COCC(C3)N4C3CCN(c4ccc(Nc5ncc6c(n5)-c5ccc(Cl)cc5C(c5c(F)cccc5F)=NC6)cc4)CC3)cc21 [Compound A362] |  |  |  | +++ (Degradation > 70%) | ++ (30% < Degradation ≤ 70%) | IC50 (H82 cells; [7]): < 1 µM
COc1cccc(F)c1C1=NCc2cnc(Nc3ccc(N4CCN(C5COC6(CCN(c7ccc(N8CCC(=O)NC8=O)cn7)CC6)C5)CC4)cc3)nc2-c2ccc(Cl)cc21 (centres unmarked) [Compound A363] |  |  | < 1 µM | +++ (Degradation > 70%) | +++ (Degradation > 70%) | 
Cn1nc(N2CCC(=O)NC2=O)c2cccc(N3CCC4(CC3)CC(N3CCN(c5ccc(Nc6ncc7c(n6)-c6ccc(Cl)cc6C(c6c(F)cccc6F)=NC7)cc5)CC3)CO4)c21 (centres unmarked) [Compound A364] |  |  |  | +++ (Degradation > 70%) | +++ (Degradation > 70%) | IC50 (H82 cells; [7]): < 1 µM
Cn1nc(N2CCC(=O)NC2=O)c2ccc(N3CCC4(CC3)CC(N3CCN(c5ccc(Nc6ncc7c(n6)-c6ccc(Cl)cc6C(c6c(F)cccc6F)=NC7)cc5)CC3)CO4)cc21 (centres unmarked) [Compound A365] |  |  | < 1 µM | +++ (Degradation > 70%) | +++ (Degradation > 70%) | 
